The values that follow come from patent US6034231A, “Human CNP gene and precursor protein” (Suntory Limited, priority 1990, dated 2000).

Positions of bridges follow the written chain, without caps; N, C: chain ends. No end group written: not given here.

For orientation: EC50 means the concentration at which the effect is half-maximal.

The test deals with chick rectum. Conditions: read-out: EC50, chick rectum relaxant activity; isolated chick rectum. How it is done: A chick rectum relaxant activity measurement was conducted in accordance with the method of Currie et al. described in Nature, 221, 1-13, 1983.

Regarding “DLRVDTKSRAAWARLLQEHPNARKYKGANKKGLSKGCFGLKLDRIGSMSGLGC (disulfide 37-53) [hCNP-53]”, the EC50 was found to be 0.87 ± 0.1 nM.
